Test system: 354836-022-R-J1-PDC multicell spheroid viability
Assay: Anticancer human tumor 354836-022-R-J1-PDC patient-derived head and neck squamous cell carcinoma cell line growth inhibition [PI3K]
Conditions: for viability, T/C: stronger effect = lower value
Method in brief: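 Stroma-containing spheroids: tumor line, pooled-donor HUVEC, hMSC. Treatments: targeted agents with PI3K inhibitors. Dosing: clinically relevant, half-log spacing, 10 microM ceiling without known Cmax. Read-out: cell viability.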

[1] = curve of first compound, second compound 0.0316 µM
[2] = curve of first compound, second compound 0.1 µM
[3] = curve of first compound, second compound 0.316 µM
[4] = curve of first compound, second compound 1 µM
[5] = curve of first compound, second compound 3.16 µM
[6] = curve of first compound, second compound 10 µM
[7] = second compound 0.0316 µM, first compound 0.0316 µM
[8] = second compound 0.0316 µM, first compound 0.1 µM
[9] = second compound 0.0316 µM, first compound 0.316 µM
[10] = second compound 0.0316 µM, first compound 1 µM
[11] = second compound 0.0316 µM, first compound 3.16 µM
[12] = second compound 0.0316 µM, first compound 10 µM
[13] = second compound 0.1 µM, first compound 0.0316 µM
[14] = second compound 0.1 µM, first compound 0.1 µM
[15] = second compound 0.1 µM, first compound 0.316 µM
[16] = second compound 0.1 µM, first compound 1 µM
[17] = second compound 0.1 µM, first compound 3.16 µM
[18] = second compound 0.1 µM, first compound 10 µM
[19] = second compound 0.316 µM, first compound 0.0316 µM
[20] = second compound 0.316 µM, first compound 0.1 µM
[21] = second compound 0.316 µM, first compound 0.316 µM
[22] = second compound 0.316 µM, first compound 1 µM
[23] = second compound 0.316 µM, first compound 3.16 µM
[24] = second compound 0.316 µM, first compound 10 µM
[25] = second compound 1 µM, first compound 0.0316 µM
[26] = second compound 1 µM, first compound 0.1 µM
[27] = second compound 1 µM, first compound 0.316 µM
[28] = second compound 1 µM, first compound 1 µM
[29] = second compound 1 µM, first compound 3.16 µM
[30] = second compound 1 µM, first compound 10 µM
[31] = second compound 3.16 µM, first compound 0.0316 µM
[32] = second compound 3.16 µM, first compound 0.1 µM
[33] = second compound 3.16 µM, first compound 0.316 µM
[34] = second compound 3.16 µM, first compound 1 µM
[35] = second compound 3.16 µM, first compound 3.16 µM
[36] = second compound 3.16 µM, first compound 10 µM
[37] = second compound 10 µM, first compound 0.0316 µM
[38] = second compound 10 µM, first compound 0.1 µM
[39] = second compound 10 µM, first compound 0.316 µM
[40] = second compound 10 µM, first compound 1 µM
[41] = second compound 10 µM, first compound 3.16 µM
[42] = second compound 10 µM, first compound 10 µM
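Further: spheroids exposed to agents for seven days before the viability read.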

**Q.** How did the IC50 (curve of first compound, second compound 0.00316 µM) turn out when `Cn1cnc2c(F)c(Nc3ccc(Br)cc3Cl)c(C(=O)NOCCO)cc21` + COc1c(OCCCN2CCOCC2)ccc2c3n(c(=NC(=O)c4cnc(N)nc4)nc12)CCN3 was run?
**A.** Its IC50 is greater than 3 µM.

**Q.** And the IC50 (curve of first compound, second compound 0.01 µM)?
**A.** Its IC50 is greater than 3 µM.

**Q.** And the IC50 [1]?
**A.** Its IC50 is 1.86 µM.

**Q.** What about the IC50 [2] of the same molecule?
**A.** The IC50 was less than 0.00949 µM.

**Q.** And the IC50 [3]?
**A.** The IC50 was less than 0.00949 µM.

**Q.** And the IC50 [4]?
**A.** The IC50 was less than 0.00949 µM.

**Q.** And the viability, T/C (second compound 0.00316 µM, first compound 0.00949 µM)?
**A.** Its viability, T/C is 107%.

**Q.** What about the viability, T/C (second compound 0.00316 µM, first compound 0.03 µM) of the same molecule?
**A.** The viability, T/C was 86.2%.

**Q.** And the viability, T/C (second compound 0.00316 µM, first compound 0.0949 µM)?
**A.** The viability, T/C was 89.4%.

**Q.** What about the viability, T/C (second compound 0.00316 µM, first compound 0.3 µM) of the same molecule?
**A.** Its viability, T/C is 96.6%.

**Q.** And the viability, T/C (second compound 0.00316 µM, first compound 0.949 µM)?
**A.** Its viability, T/C is 75.5%.

**Q.** And the viability, T/C (second compound 0.00316 µM, first compound 3 µM)?
**A.** The viability, T/C was 58%.

**Q.** And the viability, T/C (second compound 0.01 µM, first compound 0.00949 µM)?
**A.** The viability, T/C was 83.3%.

**Q.** And the viability, T/C (second compound 0.01 µM, first compound 0.03 µM)?
**A.** The viability, T/C was 84.6%.

**Q.** And the viability, T/C (second compound 0.01 µM, first compound 0.0949 µM)?
**A.** Its viability, T/C is 78.3%.

**Q.** And the viability, T/C (second compound 0.01 µM, first compound 0.3 µM)?
**A.** Its viability, T/C is 89.2%.

**Q.** What about the viability, T/C (second compound 0.01 µM, first compound 0.949 µM) of the same molecule?
**A.** The viability, T/C was 75.4%.

**Q.** What about the viability, T/C (second compound 0.01 µM, first compound 3 µM) of the same molecule?
**A.** The viability, T/C was 60.7%.

**Q.** And the viability, T/C (second compound 0.0316 µM, first compound 0.00949 µM)?
**A.** Its viability, T/C is 81.2%.

**Q.** What about the viability, T/C (second compound 0.0316 µM, first compound 0.03 µM) of the same molecule?
**A.** Its viability, T/C is 80%.

**Q.** What about the viability, T/C (second compound 0.0316 µM, first compound 0.0949 µM) of the same molecule?
**A.** The viability, T/C was 67.8%.

**Q.** What about the viability, T/C (second compound 0.0316 µM, first compound 0.3 µM) of the same molecule?
**A.** The viability, T/C was 66.9%.

**Q.** And the viability, T/C (second compound 0.0316 µM, first compound 0.949 µM)?
**A.** Its viability, T/C is 66.3%.

**Q.** What about the viability, T/C (second compound 0.0316 µM, first compound 3 µM) of the same molecule?
**A.** The viability, T/C was 41%.

**Q.** What about the viability, T/C (second compound 0.1 µM, first compound 0.00949 µM) of the same molecule?
**A.** Its viability, T/C is 43.8%.

**Q.** And the viability, T/C (second compound 0.1 µM, first compound 0.03 µM)?
**A.** The viability, T/C was 48.6%.

**Q.** And the viability, T/C (second compound 0.1 µM, first compound 0.0949 µM)?
**A.** The viability, T/C was 38.3%.

**Q.** What about the viability, T/C (second compound 0.1 µM, first compound 0.3 µM) of the same molecule?
**A.** The viability, T/C was 41.9%.

**Q.** What about the viability, T/C (second compound 0.1 µM, first compound 0.949 µM) of the same molecule?
**A.** Its viability, T/C is 31.2%.

**Q.** And the viability, T/C (second compound 0.1 µM, first compound 3 µM)?
**A.** The viability, T/C was 15.2%.

**Q.** And the viability, T/C (second compound 0.316 µM, first compound 0.00949 µM)?
**A.** The viability, T/C was 12.7%.

**Q.** And the viability, T/C (second compound 0.316 µM, first compound 0.03 µM)?
**A.** The viability, T/C was 9.02%.

**Q.** And the viability, T/C (second compound 0.316 µM, first compound 0.0949 µM)?
**A.** Its viability, T/C is 11%.

**Q.** And the viability, T/C (second compound 0.316 µM, first compound 0.3 µM)?
**A.** Its viability, T/C is 9.87%.

**Q.** What about the viability, T/C (second compound 0.316 µM, first compound 0.949 µM) of the same molecule?
**A.** Its viability, T/C is 5.57%.

**Q.** And the viability, T/C (second compound 0.316 µM, first compound 3 µM)?
**A.** The viability, T/C was 1.48%.

**Q.** And the viability, T/C (second compound 1 µM, first compound 0.00949 µM)?
**A.** Its viability, T/C is 1.58%.

**Q.** And the viability, T/C (second compound 1 µM, first compound 0.03 µM)?
**A.** The viability, T/C was 1.2%.

**Q.** What about the viability, T/C (second compound 1 µM, first compound 0.0949 µM) of the same molecule?
**A.** Its viability, T/C is 1.03%.

**Q.** And the viability, T/C (second compound 1 µM, first compound 0.3 µM)?
**A.** Its viability, T/C is 1.25%.

**Q.** What about the viability, T/C (second compound 1 µM, first compound 0.949 µM) of the same molecule?
**A.** The viability, T/C was 0.64%.

**Q.** And the viability, T/C (second compound 1 µM, first compound 3 µM)?
**A.** The viability, T/C was 0.57%.

**Q.** Which results are given for `Cn1nccc1Nc1nccc(-c2ccn(C(CO)c3ccc(Cl)c(F)c3)c(=O)c2)n1` (configuration not stated) + CC(Nc1ncnc2nc[nH]c12)c1cc2cccc(Cl)c2c(=O)n1-c1ccccc1?
**A.** IC50 [1]: > 10 µM; IC50 [2]: > 10 µM; IC50 [3]: > 10 µM; IC50 [4]: > 10 µM; IC50 [5]: > 10 µM; IC50 [6]: > 10 µM; viability, T/C [7]: 107%; viability, T/C [8]: 107%; viability, T/C [9]: 103%; viability, T/C [10]: 94.9%; viability, T/C [11]: 89.3%; viability, T/C [12]: 90.5%; viability, T/C [13]: 108%; viability, T/C [14]: 110%; viability, T/C [15]: 94.3%; viability, T/C [16]: 104%; viability, T/C [17]: 91.2%; viability, T/C [18]: 96.4%; viability, T/C [19]: 113%; viability, T/C [20]: 93.5%; viability, T/C [21]: 87.2%; viability, T/C [22]: 106%; viability, T/C [23]: 100%; viability, T/C [24]: 94.9%; viability, T/C [25]: 117%; viability, T/C [26]: 95.5%; viability, T/C [27]: 111%; viability, T/C [28]: 118%; viability, T/C [29]: 101%; viability, T/C [30]: 78.2%; viability, T/C [31]: 94.4%; viability, T/C [32]: 91.6%; viability, T/C [33]: 99.3%; viability, T/C [34]: 97.3%; viability, T/C [35]: 107%; viability, T/C [36]: 88.1%; viability, T/C [37]: 88.3%; viability, T/C [38]: 103%; viability, T/C [39]: 95.3%; viability, T/C [40]: 85.4%; viability, T/C [41]: 94%; viability, T/C [42]: 76.1%

**Q.** What does the source list for `CC1(C)CCC(CN2CCN(c3ccc(C(=O)NS(=O)(=O)c4ccc(NCC5CCOCC5)c([N+](=O)[O-])c4)c(Oc4cnc5[nH]ccc5c4)c3)CC2)=C(c2ccc(Cl)cc2)C1`?
**A.** viability, T/C (compound 0.0316 µM): 104% [middle of 4 runs]; viability, T/C (compound 0.316 µM): 102% [middle of 4 runs]; viability, T/C (compound 1 µM): 82.2% [middle of 4 runs]; viability, T/C (compound 3.16 µM): 72.4% [middle of 4 runs]

**Q.** What does the source list for `CNC(=O)c1ccc(N2C(=S)N(c3ccc(C#N)c(C(F)(F)F)c3)C(=O)C2(C)C)cc1F` + Cc1nc(NC(=O)N2CCCC2C(N)=O)sc1-c1ccnc(C(C)(C)C(F)(F)F)c1?
**A.** IC50 [1]: > 10 µM; IC50 [2]: > 10 µM; IC50 [3]: > 10 µM; IC50 [4]: > 10 µM; IC50 [5]: > 10 µM; IC50 [6]: < 0.0316 µM; viability, T/C [7]: 108%; viability, T/C [8]: 92.4%; viability, T/C [9]: 100%; viability, T/C [10]: 96%; viability, T/C [11]: 123%; viability, T/C [12]: 108%; viability, T/C [13]: 95.5%; viability, T/C [14]: 93.4%; viability, T/C [15]: 111%; viability, T/C [16]: 87.9%; viability, T/C [17]: 109%; viability, T/C [18]: 99.2%; viability, T/C [19]: 86.8%; viability, T/C [20]: 99.6%; viability, T/C [21]: 89.1%; viability, T/C [22]: 96.7%; viability, T/C [23]: 98.2%; viability, T/C [24]: 88%; viability, T/C [25]: 93.5%; viability, T/C [26]: 84.5%; viability, T/C [27]: 76.3%; viability, T/C [28]: 98.7%; viability, T/C [29]: 87%; viability, T/C [30]: 82.4%; viability, T/C [31]: 54.5%; viability, T/C [32]: 71.1%; viability, T/C [33]: 63.3%; viability, T/C [34]: 71.3%; viability, T/C [35]: 68%; viability, T/C [36]: 72.1%; viability, T/C [37]: 35.1%; viability, T/C [38]: 35%; viability, T/C [39]: 35.7%; viability, T/C [40]: 39.8%; viability, T/C [41]: 48.9%; viability, T/C [42]: 37.5%

**Q.** What does the source list for `Cn1ncc(Cl)c1-c1cc(C(=O)NC(CN)Cc2cccc(F)c2)sc1Cl` (configuration not stated)?
**A.** viability, T/C (compound 0.0316 µM): 83.5% [middle of 4 runs]; viability, T/C (compound 0.1 µM): 51.3% [middle of 4 runs]; viability, T/C (compound 0.316 µM): 35.9% [middle of 4 runs]; viability, T/C (compound 1 µM): 22.7% [middle of 4 runs]; viability, T/C (compound 3.16 µM): 15.5% [middle of 4 runs]; viability, T/C (compound 10 µM): 5.55% [middle of 4 runs]; IC50 (curve of compound): 114 nM [middle of 4 runs]
